As usually defined, the IC50 is the midpoint of a concentration-inhibition curve. A low value points to higher potency.

Data on 18 compounds can be found in patent publication US11208400B2, “Substituted 6-(1H-pyrazol-1-yl)pyrimidin-4-amine derivatives and uses thereof” (Bayer Aktiengesellschaft, priority 2016, dated 2021).

Structures are written as SMILES.

This assay deals with T1, human Npt2a (Homo sapiens, UniProt Q06495).
T1 construct: expressed in transfected cells
T1 sequence (Q06495 1-639): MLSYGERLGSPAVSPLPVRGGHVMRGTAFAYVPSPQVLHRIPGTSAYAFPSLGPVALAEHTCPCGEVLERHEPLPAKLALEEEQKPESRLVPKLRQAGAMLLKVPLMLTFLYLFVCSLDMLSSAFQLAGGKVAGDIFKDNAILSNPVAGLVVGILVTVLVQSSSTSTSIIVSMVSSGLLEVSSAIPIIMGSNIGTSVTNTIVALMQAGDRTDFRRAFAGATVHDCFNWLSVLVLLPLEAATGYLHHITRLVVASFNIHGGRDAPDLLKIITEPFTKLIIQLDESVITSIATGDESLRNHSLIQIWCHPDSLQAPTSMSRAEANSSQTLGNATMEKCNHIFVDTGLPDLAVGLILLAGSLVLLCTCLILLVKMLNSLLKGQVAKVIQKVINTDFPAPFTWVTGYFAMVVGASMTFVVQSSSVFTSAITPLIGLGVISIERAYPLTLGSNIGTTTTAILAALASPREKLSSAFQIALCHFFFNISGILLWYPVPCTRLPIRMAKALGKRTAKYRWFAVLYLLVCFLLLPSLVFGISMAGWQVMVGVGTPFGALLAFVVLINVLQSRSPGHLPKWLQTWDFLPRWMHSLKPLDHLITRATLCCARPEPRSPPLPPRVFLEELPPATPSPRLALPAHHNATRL
Briefly: Npt2a activity cell based assay, membrane potential dye, CHO T-REx hNpt2a cells. Particulars: doxycycline-induced, depolarization by sodium phosphate influx, average or median values if tested more than once. On the procedure:
For measuring Npt2a activity in a cell based assay, a stable CHO cell line with inducible Npt2a expression was generated. Therefore, CHO T-Rex cells (life technologies cat. R718-07) were stably transfected with doxycycline-inducible human NPT2a (pcDNA5TO-hNpt2a). The obtained CHO T-REx hNpt2a cells were routinely cultured in Dulbecco's MEM/F12 (4.5 g/l Glucose, Gibco cat. 21331-020; 500 mL) supplemented with 10 ml Glutamax 100×, Sodium pyruvate (7 mL of 100 mM solution), HEPES (10 mL of 1 M solution), Sodium bicarbonate (10 mL of 7.5% solution), 10% Fetal Bovine Serum Tetracycline free (Clontech cat. 631106, 500 ml), Penicillin-Streptomycin (5 mL of 100× Solution), Blasticidin 10 μg/mL and 400 μg/mL Hygromycin.
Activity of Npt2a was detected by following depolarization of cellular membrane potential by influx of sodium phosphate using fluorescent membrane potential dye kit BLUE (Molecular devices cat. R8034). For Npt2a activity measurements, CHO T-Rex hNpt2a cells were seeded into 1536 well microtiter plates (GREINER Bio-One cat. 782092) with 750 cells/well in 7 μL/w of complete medium (2% Tetracycline-free FBS, 2% Poly-D-Lysine) without selective agents+Doxycycline 0.5 μg/mL to induce Npt2a gene expression, and grown for 24 h at 37° C., 5% carbon dioxide.
On the day of experiment a 1×MPdye Loading Solution was freshly prepared by re-suspending 15 mg of Blue MPdye powder in 10 mL of NHE buffer sodium-free (140 mM N-Methyl-D-glucamine, 5.4 mM KCl, 1 mM CaCl2, 11 mM D(±)-Glucose water free, 1.2 mM MgCl2, 10 mM HEPES; pH 7.4 (adjusted with hydrochloric acid); sterile filtered). 5 μl medium was removed from plates by robotic manipulation, then 5 μL/well of sodium-free NHE buffer was added. After incubation for 2 min, this washing step was repeated once. Then, 5 μL/w of buffer was removed from plates and cells were incubated for 5 min at room temperature with 5 μL/w of MPdye Loading Solution (1× in Sodium-free NHE Buffer). Test compounds were added to the cells at final test concentrations between 50 μM and 1 nM (0.6 μL/well, final DMSO 0.6%, prepared in MPDye Loading Solution) and incubated for 5 min at room temperature.
Plates were analyzed with an in house CCD camera device using a λexc 510-545 nm/λem 565-625 nm filter. Fluorescence was detected for 15 sec (background measurement M1). Activity of Npt2a was triggered by addition of 2 μL/well of 30 mM Na+ and 1 mM phosphate (prepared in a mixture of NHE Buffer Na+ free and NHE Buffer 140 mM Na+). Fluorescence was followed for 2-3 min (depolarization measurement M2). Data was normalized to cell number and dye loading efficiency by calculating M2/M1. This quotient was plotted against test compound concentration. Graph Pad Prism or equivalent in house software was used to create sigmoidal dose-response curves (variable slope) and determine IC50 values.
Consider `Cc1nn(-c2cc(Nc3c(C)c(-c4ccc(F)cc4)nn3CC3CC3)ncn2)c(C)c1C(C)O` (single isomer, unassigned) [Example 329, 1-[1-(6-{[1-(cyclopropylmethyl)-3-(4-fluorophenyl)-4-methyl-1H-pyrazol-5-yl]amino}pyrimidin-4-yl)-3,5-dimethyl-1H-pyrazol-4-yl]ethanol], for which half-maximal inhibition (IC50) required 0.067 µM.

`Cc1nn(-c2cc(Nc3c(C)c(-c4ccc(F)cc4)nn3CC3CC3)ncn2)c(C)c1C(C)O` (single isomer, unassigned) [Example 330, 1-[1-(6-{[1-(cyclopropylmethyl)-3-(4-fluorophenyl)-4-methyl-1H-pyrazol-5-yl]amino}pyrimidin-4-yl)-3,5-dimethyl-1H-pyrazol-4-yl]ethanol] showed an IC50 of 0.022 µM.

Regarding `COc1c(-c2ccc(C#N)cc2)nn(CC2CC2)c1Nc1cc(-n2nc(C)c(C(C)O)c2C)ncn1` (single isomer, unassigned) [Example 332, 4-{1-(cyclopropylmethyl)-5-[(6-{4-[1-hydroxyethyl]-3,5-dimethyl-1H-pyrazol-1-yl}pyrimidin-4-yl)amino]-4-methoxy-1H-pyrazol-3-yl}benzonitrile], the IC50 was 1.9 µM.

As to `COc1c(-c2ccc(C#N)cc2)nn(CC2CC2)c1Nc1cc(-n2nc(C)c(C(C)OC)c2C)ncn1` (single isomer, unassigned) [Example 334, 4-{1-(cyclopropylmethyl)-4-methoxy-5-[(6-{4-[1-methoxyethyl]-3,5-dimethyl-1H-pyrazol-1-yl}pyrimidin-4-yl)amino]-1H-pyrazol-3-yl}benzonitrile], 0.041 µM corresponded to half-maximal inhibition (IC50).

As for `COc1c(-c2ccc(C#N)cc2)nn(CC2CC2)c1Nc1cc(-n2nc(C)c(C(C)OC)c2C)ncn1` (single isomer, unassigned) [Example 335], the IC50 is 0.051 µM.

The compound `COC(C)c1c(C)nn(-c2cc(Nc3c(C)c(-c4ccc(C#N)cc4)nn3C)ncn2)c1C` (single isomer, unassigned) [Example 339, 4-{5-[(6-{4-[1-methoxyethyl]-3,5-dimethyl-1H-pyrazol-1-yl}pyrimidin-4-yl)amino]-1,4-dimethyl-1H-pyrazol-3-yl}benzonitrile] came in with a 50% inhibitory concentration (IC50) of 0.008 µM.

For `COC(C)c1c(C)nn(-c2cc(Nc3c(C)c(-c4ccc(C#N)cc4)nn3C)ncn2)c1C` (single isomer, unassigned) [Example 340, 4-{5-[(6-{4-[1-methoxyethyl]-3,5-dimethyl-1H-pyrazol-1-yl}pyrimidin-4-yl)amino]-1,4-dimethyl-1H-pyrazol-3-yl}benzonitrile], the IC50 was found to be 0.012 µM.

As for `COC(C)c1c(C)nn(-c2cc(Nc3nn(C)c(-c4ccc(F)cc4)c3C)ncn2)c1C` (single isomer, unassigned) [Example 344, N-[5-(4-fluorophenyl)-1,4-dimethyl-1H-pyrazol-3-yl]-6-{4-[1-methoxyethyl]-3,5-dimethyl-1H-pyrazol-1-yl}pyrimidin-4-amine], it took 0.005 µM to reach half-maximal inhibition (IC50).

Turning to `COC(C)c1c(C)nn(-c2cc(Nc3nn(C)c(-c4ccc(F)cc4)c3C)ncn2)c1C` (single isomer, unassigned) [Example 345, N-[5-(4-fluorophenyl)-1,4-dimethyl-1H-pyrazol-3-yl]-6-{4-[1-methoxyethyl]-3,5-dimethyl-1H-pyrazol-1-yl}pyrimidin-4-amine], inhibition was half-maximal at 0.007 µM (IC50).

As for `Cc1nn(-c2cc(Nc3c(C)c(-c4ccc(C#N)cc4)nn3CC3CC3)ncn2)c(C)c1C(O)C(F)(F)F` (single isomer, unassigned) [Example 359, 4-{1-(cyclopropylmethyl)-5-[(6-{3,5-dimethyl-4-[2,2,2-trifluoro-1-hydroxyethyl]-1H-pyrazol-1-yl}pyrimidin-4-yl)amino]-4-methyl-1H-pyrazol-3-yl}benzonitrile], half-maximal inhibition (IC50) required 0.015 µM.

`Cc1nn(-c2cc(Nc3c(C)c(-c4ccc(C#N)cc4)nn3CC3CC3)ncn2)c(C)c1C(O)C(F)(F)F` (single isomer, unassigned) [Example 360, 4-{1-(cyclopropylmethyl)-5-[(6-{3,5-dimethyl-4-[(1 S)-2,2,2-trifluoro-1-hydroxyethyl]-1H-pyrazol-1-yl}pyrimidin-4-yl)amino]-4-methyl-1H-pyrazol-3-yl}benzonitrile]: it took 0.006 µM to reach half-maximal inhibition (IC50).

Turning to `Cc1cc(C)n(-c2cc(Nc3c(C)c(-c4ccc(F)cc4)nn3CC(O)C3CC3)ncn2)n1` (single isomer, unassigned) [Example 370, 1-cyclopropyl-2-[5-{[6-(3,5-dimethyl-1H-pyrazol-1-yl)pyrimidin-4-yl]amino}-3-(4-fluorophenyl)-4-methyl-1H-pyrazol-1-yl]ethanol], the IC50 turned out to be 2.4 µM.

`Cc1cc(C)n(-c2cc(Nc3c(C)c(-c4ccc(F)cc4)nn3CC(O)C3CC3)ncn2)n1` (single isomer, unassigned) [Example 371, 1-cyclopropyl-2-[5-{[6-(3,5-dimethyl-1H-pyrazol-1-yl)pyrimidin-4-yl]amino}-3-(4-fluorophenyl)-4-methyl-1H-pyrazol-1-yl]ethanol] yielded an IC50 of 0.24 µM.

Take `Cc1nn(-c2cc(Nc3c(C)c(-c4ccc(F)cc4)nn3CC3CC3)ncn2)c(C)c1C(O)C(F)(F)F` (single isomer, unassigned) [Example 375, 1-[1-(6-{[1-(cyclopropylmethyl)-3-(4-fluorophenyl)-4-methyl-1H-pyrazol-5-yl]amino}pyrimidin-4-yl)-3,5-dimethyl-1H-pyrazol-4-yl]-2,2,2-trifluoroethanol]: it took 0.04 µM to reach half-maximal inhibition (IC50).

On to `Cc1nn(-c2cc(Nc3c(C)c(-c4ccc(F)cc4)nn3CC3CC3)ncn2)c(C)c1C(O)C(F)(F)F` (single isomer, unassigned) [Example 376, 1-[1-(6-{[1-(cyclopropylmethyl)-3-(4-fluorophenyl)-4-methyl-1H-pyrazol-5-yl]amino}pyrimidin-4-yl)-3,5-dimethyl-1H-pyrazol-4-yl]-2,2,2-trifluoroethanol], for which 0.008 µM corresponded to half-maximal inhibition (IC50).

Consider `Cc1nn(-c2cc(Nc3c(C)c(-c4ccc(F)cc4)nn3CC3CC3)ncn2)c(C)c1C(O)C1CC1` (single isomer, unassigned) [Example 419, cyclopropyl[1-(6-{[1-(cyclopropylmethyl)-3-(4-fluorophenyl)-4-methyl-1H-pyrazol-5-yl]amino}pyrimidin-4-yl)-3,5-dimethyl-1H-pyrazol-4-yl]methanol], for which half-maximal inhibition (IC50) required 0.014 µM.

`Cc1nn(-c2cc(Nc3c(C)c(-c4ccc(F)cc4)nn3CC3CC3)ncn2)c(C)c1C(O)C1CC1` (single isomer, unassigned) [Example 420, cyclopropyl[1-(6-{[1-(cyclopropylmethyl)-3-(4-fluorophenyl)-4-methyl-1H-pyrazol-5-yl]amino}pyrimidin-4-yl)-3,5-dimethyl-1H-pyrazol-4-yl]methanol] yielded a 50% inhibitory concentration (IC50) of 0.024 µM.

For the compound `Cc1nn(-c2cc(Nc3c(C)c(-c4ccc(C(F)F)cc4)nn3CC3CC3)ncn2)c(C)c1C(O)C1CC1` (single isomer, unassigned) [Example 495, Cyclopropyl {1-[6-({1-(cyclopropylmethyl)-3-[4-(difluoromethyl)phenyl]-4-methyl-1H-pyrazol-5-yl}amino)pyrimidin-4-yl]-3,5-dimethyl-1H-pyrazol-4-yl}methanol], the half-inhibitory concentration (IC50) was determined as 0.011 µM.
